Measured values taken from patent publication US7737118B2, “Rotational intrathecal analgesia” (Omeros Corporation, priority 2001, dated 2010).

Assays:
Type in all cases: in vivo
[1] = test system: male Sprague-Dawley rats; test: Rat hindpaw withdrawal latency (HWL) to mechanical stimulation (Randall Selitto Test); conditions: for % Changes of HWL to Mechanical Stimulation 10 Minutes After Intrathecal Injection, Left: Left hindpaw; for % Changes of HWL to Mechanical Stimulation 10 Minutes After Intrathecal Injection, Right: Right hindpaw
[2] = test system: male Sprague-Dawley rats; test: Rat hindpaw withdrawal latency (HWL) to thermal stimulation (hot-plate test, 52° C.); conditions: for % Changes of HWL to Thermal Stimulation 10 Minutes After Intrathecal Injection, Left: Left hindpaw; for % Changes of HWL to Thermal Stimulation 10 Minutes After Intrathecal Injection, Right: Right hindpaw
[3] = test system: male Sprague-Dawley rats; test: Rat HWL study, both types of stimulation: analgesia and development of complete tolerance; conditions: drug alone, intrathecal every 12 hrs; mechanical and thermal HWL
Experimental: Experiments were performed on male Sprague-Dawley rats having a weight of 200-250 g. The rats were housed in cages with free access to food and water. Room temperature was maintained at 24±2° C. and a 12 hr light/dark cycle was maintained. All experiments were conducted according to the guidelines of the Committee on Animal Research at the University of California at San Francisco. Every effort was made to minimize animal suffering.
A polyethylene catheter (Intramedic PE 10) was permanently implanted intrathecally with the inner tip at L3 to L5 in each animal. Rats displaying movement disorders following placement of the catheter were not used in the study. […]
In the morphine only group, 8 μg morphine HCl was injected every 12 hrs until complete tolerance developed and in the nociceptin only group, 10 nmol nociceptin was injected every 12 hrs until complete tolerance developed. These doses were chosen from previous studies that determined an equianalgesic dosing for these two drugs. […]
The rats were trained with the testing conditions for five days prior to the experiments to decrease the stress response caused by handling and measurements and to obtain baseline responses. The hindpaw withdrawal latency (HWL) was measured for both thermal and mechanical stimulation. […] The HWLs were measured 15 min after the second intrathecal injection on a daily basis. […]

[4] = day 1, intrathecal every 12 hrs: 8 μg morphine, 10 nmol nociceptin, or rotated every two days
[5] = day 2, intrathecal every 12 hrs: 8 μg morphine, 10 nmol nociceptin, or rotated every two days
[6] = day 3, intrathecal every 12 hrs: 8 μg morphine, 10 nmol nociceptin, or rotated every two days
[7] = day 4, intrathecal every 12 hrs: 8 μg morphine, 10 nmol nociceptin, or rotated every two days
[8] = day 5, intrathecal every 12 hrs: 8 μg morphine, or morphine/nociceptin rotated every two days
[9] = day 6, intrathecal every 12 hrs: 8 μg morphine, or morphine/nociceptin rotated every two days
[10] = day 1, drug alone, intrathecal (morphine 8 μg or nociceptin 10 nmol every 12 hrs)

SMILES: CN1CC[C@]23c4c5ccc(O)c4O[C@H]2[C@@H](O)C=C[C@H]3[C@H]1C5.Cl [Morphine, morphine HCl]
- % Changes of HWL to Mechanical Stimulation 10 Minutes After Intrathecal Injection, Left [1, 4]: 53.99 ± 2.96%
- % Changes of HWL to Mechanical Stimulation 10 Minutes After Intrathecal Injection, Left [1, 5]: 47.69 ± 2.54%
- % Changes of HWL to Mechanical Stimulation 10 Minutes After Intrathecal Injection, Left [1, 6]: 33.85 ± 1.60%
- % Changes of HWL to Mechanical Stimulation 10 Minutes After Intrathecal Injection, Left [1, 7]: 31.37 ± 2.02%
- % Changes of HWL to Mechanical Stimulation 10 Minutes After Intrathecal Injection, Left [1, 8]: 15.30 ± 1.39%
- % Changes of HWL to Mechanical Stimulation 10 Minutes After Intrathecal Injection, Left [1, 9]: 3.26 ± 1.86%
- % Changes of HWL to Mechanical Stimulation 10 Minutes After Intrathecal Injection, Right [1, 4]: 56.04 ± 3.38%
- % Changes of HWL to Mechanical Stimulation 10 Minutes After Intrathecal Injection, Right [1, 5]: 46.74 ± 2.52%
- % Changes of HWL to Mechanical Stimulation 10 Minutes After Intrathecal Injection, Right [1, 6]: 33.44 ± 1.03%
- % Changes of HWL to Mechanical Stimulation 10 Minutes After Intrathecal Injection, Right [1, 7]: 28.84 ± 2.73%
- % Changes of HWL to Mechanical Stimulation 10 Minutes After Intrathecal Injection, Right [1, 8]: 16.54 ± 1.26%
- % Changes of HWL to Mechanical Stimulation 10 Minutes After Intrathecal Injection, Right [1, 9]: 2.72 ± 1.94%
- HWL increase using mechanical stimulation [1, 10]: ~55%
- % Changes of HWL to Thermal Stimulation 10 Minutes After Intrathecal Injection, Left [2, 4]: 66.26 ± 2.20%
- % Changes of HWL to Thermal Stimulation 10 Minutes After Intrathecal Injection, Left [2, 5]: 61.25 ± 3.05%
- % Changes of HWL to Thermal Stimulation 10 Minutes After Intrathecal Injection, Left [2, 6]: 51.66 ± 1.73%
- % Changes of HWL to Thermal Stimulation 10 Minutes After Intrathecal Injection, Left [2, 7]: 43.63 ± 1.38%
- % Changes of HWL to Thermal Stimulation 10 Minutes After Intrathecal Injection, Left [2, 8]: 23.85 ± 1.03%
- % Changes of HWL to Thermal Stimulation 10 Minutes After Intrathecal Injection, Left [2, 9]: −1.30 ± 2.36%
- % Changes of HWL to Thermal Stimulation 10 Minutes After Intrathecal Injection, Right [2, 4]: 66.66 ± 1.51%
- % Changes of HWL to Thermal Stimulation 10 Minutes After Intrathecal Injection, Right [2, 5]: 63.11 ± 0.64%
- % Changes of HWL to Thermal Stimulation 10 Minutes After Intrathecal Injection, Right [2, 6]: 48.74 ± 2.40%
- % Changes of HWL to Thermal Stimulation 10 Minutes After Intrathecal Injection, Right [2, 7]: 42.45 ± 1.70%
- % Changes of HWL to Thermal Stimulation 10 Minutes After Intrathecal Injection, Right [2, 8]: 25.07 ± 2.07%
- % Changes of HWL to Thermal Stimulation 10 Minutes After Intrathecal Injection, Right [2, 9]: 0.51 ± 1.61%
- HWL increase using thermal stimulation [2, 10]: approximately 67%
- day by which total/complete tolerance exists [3]: 6 days
